In patent US7592457B2 (Korea Research Institute of Chemical Technology, priority 2004, dated 2009):

Key:
5-HT2c = target: T1, 5-HT2c (Homo sapiens, UniProt P28335); assay: Radioligand binding, 5-HT2c ([3H]Mesulergine); conditions: read-out: Binding affinity (Inhibition rate % at 10 μM) 5HT2c
T1 construct: purchased Euroscreen/BioSignal Packard Inc
T1 sequence (P28335 33-458): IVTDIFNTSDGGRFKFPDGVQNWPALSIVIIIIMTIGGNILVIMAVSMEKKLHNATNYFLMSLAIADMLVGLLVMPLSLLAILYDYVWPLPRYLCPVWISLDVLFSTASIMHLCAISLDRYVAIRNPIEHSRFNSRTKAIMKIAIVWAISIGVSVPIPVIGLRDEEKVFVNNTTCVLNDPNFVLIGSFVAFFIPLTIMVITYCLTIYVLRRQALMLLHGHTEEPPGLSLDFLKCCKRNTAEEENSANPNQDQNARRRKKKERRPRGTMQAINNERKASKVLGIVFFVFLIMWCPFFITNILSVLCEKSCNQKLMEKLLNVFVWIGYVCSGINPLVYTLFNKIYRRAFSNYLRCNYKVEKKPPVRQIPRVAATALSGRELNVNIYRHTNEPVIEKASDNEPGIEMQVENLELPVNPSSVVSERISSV
Experimental: (§1) Radioligand bindings were performed according to the test method provided by the supplier of receptor membrane (Euroscreen/BioSignal Packard Inc.).

5-HT7 = target: T2, 5-HT7 (Homo sapiens, UniProt P34969); assay: Radioligand binding, 5-HT7 ([3H]LSD); conditions: read-out: Binding affinity (Inhibition rate % at 10 μM) 5HT7
T2 construct: purchased Euroscreen/BioSignal Packard Inc
T2 sequence (P34969 whole entry): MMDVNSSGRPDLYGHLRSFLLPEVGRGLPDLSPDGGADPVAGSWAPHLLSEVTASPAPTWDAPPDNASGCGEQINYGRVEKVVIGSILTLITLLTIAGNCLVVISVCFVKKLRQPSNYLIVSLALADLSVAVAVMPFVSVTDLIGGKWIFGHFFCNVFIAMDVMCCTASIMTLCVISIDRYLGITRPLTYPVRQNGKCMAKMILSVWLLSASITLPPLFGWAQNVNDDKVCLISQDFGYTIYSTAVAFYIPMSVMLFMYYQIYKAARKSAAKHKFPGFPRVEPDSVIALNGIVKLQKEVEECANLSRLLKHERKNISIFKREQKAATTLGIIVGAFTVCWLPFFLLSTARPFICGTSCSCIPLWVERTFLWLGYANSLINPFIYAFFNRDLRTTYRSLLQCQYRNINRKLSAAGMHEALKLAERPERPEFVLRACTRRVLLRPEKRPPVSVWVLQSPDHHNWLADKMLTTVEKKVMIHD
Experimental: as §1

5-HT2a = target: T3, 5-HT2a (Homo sapiens, UniProt P28223); assay: Radioligand binding, 5-HT2a ([3H]Ketanserin); conditions: read-out: Binding affinity (Inhibition rate % at 10 μM) 5HT2a
T3 construct: purchased Euroscreen/BioSignal Packard Inc
T3 sequence (P28223 whole entry): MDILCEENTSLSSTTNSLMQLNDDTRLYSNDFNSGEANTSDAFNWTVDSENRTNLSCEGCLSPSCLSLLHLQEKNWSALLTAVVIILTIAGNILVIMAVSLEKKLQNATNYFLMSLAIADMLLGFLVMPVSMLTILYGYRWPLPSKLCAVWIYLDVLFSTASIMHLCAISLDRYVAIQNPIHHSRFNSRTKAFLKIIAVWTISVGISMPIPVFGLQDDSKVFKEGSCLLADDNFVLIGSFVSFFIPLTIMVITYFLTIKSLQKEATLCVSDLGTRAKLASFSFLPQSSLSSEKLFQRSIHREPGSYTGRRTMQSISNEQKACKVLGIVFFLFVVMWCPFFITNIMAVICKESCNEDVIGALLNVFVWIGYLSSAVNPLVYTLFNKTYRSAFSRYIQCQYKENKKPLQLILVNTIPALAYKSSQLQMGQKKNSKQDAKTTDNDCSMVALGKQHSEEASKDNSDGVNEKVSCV
Experimental: as §1

D1 = D1 (Homo sapiens, UniProt P21728); assay: Radioligand binding for selectivity, D1; conditions: read-out: Binding affinity (Inhibition rate % at 10 μM) D1
Chain of D1 (P21728 whole entry): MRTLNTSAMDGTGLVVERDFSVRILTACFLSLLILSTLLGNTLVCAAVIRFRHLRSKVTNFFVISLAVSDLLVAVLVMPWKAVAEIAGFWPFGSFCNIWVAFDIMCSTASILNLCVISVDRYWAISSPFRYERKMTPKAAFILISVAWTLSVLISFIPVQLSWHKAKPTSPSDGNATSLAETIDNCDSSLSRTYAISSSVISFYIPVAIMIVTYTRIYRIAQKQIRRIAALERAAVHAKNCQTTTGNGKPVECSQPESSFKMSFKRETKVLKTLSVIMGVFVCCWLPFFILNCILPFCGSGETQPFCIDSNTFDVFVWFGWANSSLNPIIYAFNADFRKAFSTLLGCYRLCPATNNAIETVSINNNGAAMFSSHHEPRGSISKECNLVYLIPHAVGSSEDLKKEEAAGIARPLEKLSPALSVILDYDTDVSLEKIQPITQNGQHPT

[1] = target: T4, human serotonin 5-HT6 receptor (Homo sapiens, UniProt P50406); assay: [3H]LSD binding at cloned 5-HT6 receptors; conditions: for IC50: [3H]LSD 1.87 nM, cloned receptor membranes, 37° C., 60 min, read-out: IC50; for inhibition at 10 µM: read-out: Binding affinity (Inhibition rate % at 10 μM) 5HT6
T4 construct: made in house; host or cells: Sf21 insect cells (pBacPAK8 baculovirus vector)
T4 sequence (P50406 whole entry): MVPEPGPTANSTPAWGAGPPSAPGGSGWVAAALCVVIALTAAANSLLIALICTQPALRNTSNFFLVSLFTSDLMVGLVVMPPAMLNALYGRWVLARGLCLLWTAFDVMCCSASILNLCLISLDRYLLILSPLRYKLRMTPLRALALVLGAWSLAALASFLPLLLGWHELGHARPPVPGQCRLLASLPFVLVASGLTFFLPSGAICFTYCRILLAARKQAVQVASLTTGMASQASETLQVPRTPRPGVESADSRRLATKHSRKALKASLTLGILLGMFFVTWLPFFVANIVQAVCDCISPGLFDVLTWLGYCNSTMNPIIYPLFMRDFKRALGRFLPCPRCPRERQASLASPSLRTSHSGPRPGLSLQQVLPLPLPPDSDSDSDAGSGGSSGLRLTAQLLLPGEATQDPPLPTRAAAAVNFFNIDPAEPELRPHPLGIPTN

hD2L receptor = target: T5, hD2L receptor (Homo sapiens, UniProt P14416); assay: Radioligand binding, dopamine D2 ([3H]spiperone); conditions: read-out: Binding affinity (Inhibition rate % at 10 μM) D2
T5 construct: purchased BioSignal Packard Inc., Montreal, Canada
T5 sequence (P14416 whole entry): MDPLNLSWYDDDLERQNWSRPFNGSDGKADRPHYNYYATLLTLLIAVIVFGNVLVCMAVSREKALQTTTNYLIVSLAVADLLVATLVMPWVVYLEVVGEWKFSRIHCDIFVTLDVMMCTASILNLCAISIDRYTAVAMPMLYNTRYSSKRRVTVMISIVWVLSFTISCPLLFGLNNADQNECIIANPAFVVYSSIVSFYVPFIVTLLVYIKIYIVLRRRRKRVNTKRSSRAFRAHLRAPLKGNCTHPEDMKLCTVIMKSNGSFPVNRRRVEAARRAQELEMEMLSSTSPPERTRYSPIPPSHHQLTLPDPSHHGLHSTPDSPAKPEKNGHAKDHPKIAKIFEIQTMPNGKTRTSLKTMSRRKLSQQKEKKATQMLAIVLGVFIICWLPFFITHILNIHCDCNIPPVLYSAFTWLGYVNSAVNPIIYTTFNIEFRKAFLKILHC
Experimental: (§2) The radioligands used were [^3H] spiperone (for hD2L and hD3 receptors, 1 nM) and [^3H] YM-09151-2 (for hD4.2 receptor, 0.06 nM). Radioligand bindings were performed by the protocols provided by the supplier of receptor membranes (BioSignal Packard Inc., Montreal, Canada). Briefly, the buffer used in D2 or D3 receptor binding assay was 50 mM Tris-HCl (pH 7.4), 10 mM MgCl2, 1 mM EDTA, or 50 mM Tris-HCl (pH 7.4), 5 mM MgCl2, 5 mM EDTA, 5 mM KCl, 1.5 mM CaCl2, 120 mM NaCl, respectively. In [^3H] YM-09151-2 receptor binding assays, the buffer containing 50 mM Tris-HCl (pH 7.4), 5 mM MgCl2, 5 mM EDTA, 5 mM KCl and 1.5 mM CaCl2 was used. Nonspecific binding was determined with haloperidol (10 μM) or clozapine (10 μM) for D2 and D3, and D4 receptors, respectively. Competition binding studies were carried out with 7-8 concentrations of the test compound run in duplicate tubes, and isotherms from three assays were calculated by computerized nonlinear regression analysis (GraphPad Prism Program, San Diego, […]) to yield median inhibitory concentration (IC50) values.

hD3 receptor = target: T6, hD3 receptor (Homo sapiens, UniProt P35462); assay: Radioligand binding, dopamine D3 ([3H]spiperone); conditions: read-out: Binding affinity (Inhibition rate % at 10 μM) D3
T6 construct: purchased BioSignal Packard Inc., Montreal, Canada
T6 sequence (P35462 whole entry): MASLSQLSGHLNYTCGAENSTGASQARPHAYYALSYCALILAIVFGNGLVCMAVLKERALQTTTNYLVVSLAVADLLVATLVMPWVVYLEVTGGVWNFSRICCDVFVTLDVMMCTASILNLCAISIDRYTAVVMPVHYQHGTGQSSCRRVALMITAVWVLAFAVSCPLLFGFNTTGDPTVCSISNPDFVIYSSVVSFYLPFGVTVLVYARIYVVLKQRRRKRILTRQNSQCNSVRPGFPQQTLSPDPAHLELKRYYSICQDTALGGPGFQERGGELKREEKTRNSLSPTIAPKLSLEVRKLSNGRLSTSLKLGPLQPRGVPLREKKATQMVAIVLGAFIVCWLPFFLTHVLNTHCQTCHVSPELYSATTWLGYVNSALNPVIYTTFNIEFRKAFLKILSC
Experimental: as §2

hD4.2 receptor = target: T7, hD4.2 receptor (Homo sapiens, UniProt P21917, DEL265-296); assay: Radioligand binding, dopamine D4 ([3H]YM-09151-2); conditions: read-out: Binding affinity (Inhibition rate % at 10 μM) D4
T7 construct: purchased BioSignal Packard Inc., Montreal, Canada
T7 sequence (P21917 with tags, fused parts or gaps DEL265-296): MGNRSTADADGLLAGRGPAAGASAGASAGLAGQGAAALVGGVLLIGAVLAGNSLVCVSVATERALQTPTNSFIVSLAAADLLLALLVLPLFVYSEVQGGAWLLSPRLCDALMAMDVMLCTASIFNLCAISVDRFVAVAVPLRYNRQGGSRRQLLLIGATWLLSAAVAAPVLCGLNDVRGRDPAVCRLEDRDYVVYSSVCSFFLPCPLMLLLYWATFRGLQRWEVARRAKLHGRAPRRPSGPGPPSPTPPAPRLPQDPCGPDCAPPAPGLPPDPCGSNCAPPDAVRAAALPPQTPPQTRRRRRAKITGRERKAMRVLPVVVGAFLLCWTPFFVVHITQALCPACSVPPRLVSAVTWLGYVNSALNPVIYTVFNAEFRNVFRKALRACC
Experimental: as §2

5-HT1a = target: T8, 5-HT1a (Homo sapiens, UniProt P08908); assay: Radioligand binding, 5-HT1a ([3H]8-OH-DPAT); conditions: read-out: Binding affinity (Inhibition rate % at 10 μM) 5HT1a
T8 construct: purchased Euroscreen/BioSignal Packard Inc
T8 sequence (P08908 1-422): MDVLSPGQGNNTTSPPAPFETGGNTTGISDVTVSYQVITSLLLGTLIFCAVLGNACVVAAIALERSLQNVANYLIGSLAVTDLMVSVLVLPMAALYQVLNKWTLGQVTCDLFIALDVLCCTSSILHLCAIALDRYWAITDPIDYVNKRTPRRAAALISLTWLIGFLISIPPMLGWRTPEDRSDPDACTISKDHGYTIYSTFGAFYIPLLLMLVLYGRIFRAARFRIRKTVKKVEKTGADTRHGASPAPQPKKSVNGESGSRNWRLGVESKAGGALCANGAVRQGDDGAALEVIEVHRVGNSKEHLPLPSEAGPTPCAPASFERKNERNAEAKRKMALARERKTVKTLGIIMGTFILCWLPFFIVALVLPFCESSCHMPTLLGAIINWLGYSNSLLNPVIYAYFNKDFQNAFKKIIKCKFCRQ
Experimental: as §1

| SMILES | inhibition at 10 µM (5-HT2c) [%] | inhibition at 10 µM (5-HT7) [%] | inhibition at 10 µM (5-HT2a) [%] | inhibition at 10 µM (D1) [%] | IC50 [1] [nM] | inhibition at 10 µM [1] [%] | inhibition at 10 µM (hD2L receptor) [%] | inhibition at 10 µM (hD3 receptor) [%] | inhibition at 10 µM (hD4.2 receptor) [%] | inhibition at 10 µM (5-HT1a) [%] |
| --- | --- | --- | --- | --- | --- | --- | --- | --- | --- | --- |
| COc1cc(Cl)c2c(c1)NC(=O)C(C)(c1ccccc1)C2=O (stereo not drawn) [Example 5, 5-chloro-7-methoxy-3-methyl-3-phenyl-1H-quinoline-2,4-dione] | 20.5 | 9.4 | 26.8 | 10.3 | 560 | 73.5 | 20.5 | 10.1 | 0 | 18.9 |
| COc1cc(Br)c2c(c1)NC(=O)C(C)(c1ccccc1)C2=O (stereo not drawn) [Example 7, 5-bromo-7-methoxy-3-methyl-3-phenyl-1H-quinoline-2,4-dione] | 30.3 | 12.4 | 25.4 | 30.5 | 119 | 71.1 | 12.8 | 1.5 | 0.8 | 29.1 |
| CC1(c2ccccc2)C(=O)Nc2c(Br)cc(Br)cc2C1=O (stereo not drawn) [Example 10, 6,8-dibromo-3-methyl-3-phenyl-1H-quinoline-2,14-dione] | 16.8 | 20.7 | 29.5 | 13.5 | 1330 | 73.4 | 11.2 | 19.5 | 0 | 0 |
| CC1(c2ccc([N+](=O)[O-])cc2)C(=O)Nc2cc(Cl)cc(Cl)c2C1=O (stereo not drawn) [Example 14, 5,7-dichloro-3-methyl-3-(4-nitro-phenyl)-1H-quinoline-2,4-dione] | 3.8 | 10.8 | 54.1 | 6.5 | 870 | 71.2 | 26.5 | 30.7 | 0 | 60.5 |
| CC1(c2ccc(N)cc2)C(=O)Nc2cc(Cl)cc(Cl)c2C1=O (stereo not drawn) [Example 15, 3-(4-amino-phenyl)-5,7-dichloro-3-methyl-1H-quinoline-2,4-dione] | 15.6 | 11.1 | 16.9 | 4.8 | 254 | 73 | 0 | 5.8 | 4.5 | 52.3 |
| CC1(c2ccc(I)cc2)C(=O)Nc2cc(Cl)cc(Cl)c2C1=O (stereo not drawn) [Example 16, 5,7-dichloro-3-(4-iodo-phenyl)-3-methyl-1H-quinoline-2,4-dione] | 34.5 | 50.7 | 47.2 | 24.7 | 1550 | 70.9 | 20.1 | 10 | 1.3 | 43.5 |
| CC1(c2ccc(Cl)cc2)C(=O)Nc2cc(Cl)cc(Cl)c2C1=O (stereo not drawn) [Example 17, 5,7-dichloro-3-(4-chloro-phenyl)-3-methyl-1H-quinoline-2,4-dione] | 21.2 | 26.9 | 30.2 | 13.8 | 1430 | 69.8 | 7.5 | 16.5 | 0.5 | 26.7 |
| CC1(c2ccc(Br)cc2Br)C(=O)Nc2cc(Cl)cc(Cl)c2C1=O (stereo not drawn) [Example 27, 3-(2,4-dibromo-phenyl)-5,7-dichloro-3-methyl-1H-quinoline-2,4-dione] | 28.1 | 12.3 | 30.8 | 25.8 | 349 | 71.1 | 10.2 | 15.6 | 1.6 | 46 |
| COc1ccc(C2(C)C(=O)Nc3c(Br)cc(Br)cc3C2=O)cc1[N+](=O)[O-] (stereo not drawn) [Example 28, 6,8-dibromo-3-(4-methoxy-3-nitro-phenyl)-3-methyl-1H-quinoline-2,4-dione] | 13.7 | 10.2 | 9 | 46.9 | 1200 | 73.2 | 9.4 | 40.9 | 2.3 | 60.9 |
| COc1ccc(C2(C)C(=O)Nc3c(Br)cc(Br)cc3C2=O)cc1N (stereo not drawn) [Example 29, 3-(3-amino-4-methoxy-phenyl)-6,8-dibromo-3-methyl-1H-quinoline-2,4-dione] | 40.6 | 28.1 | 21.1 | 23.6 | 1550 | 68.5 | 5.6 | 43.8 | 11.6 | 40.7 |
| CC1(c2ccc(O)c(N)c2)C(=O)Nc2c(Br)cc(Br)cc2C1=O (stereo not drawn) [Example 30, 3-(3-amino-4-hydroxy-phenyl)-6,8-dibromo-3-methyl-1H-quinoline-2,4-dione] | 5.4 | 4.9 | 35.1 | 18.6 | 1730 | 69.2 | 18.5 | 25.1 | 0.9 | 0 |
| COc1ccc(C2(C)C(=O)Nc3ccccc3C2=O)cc1 (stereo not drawn) [Example 33, 3-(4-methoxy-phenyl)-3-methyl-1H-quinoline-2,4-dione] | 13.5 | 6.6 | 10.7 | 29.5 | 487 | 72.4 | 20.9 | 13.1 | 0 | 20.4 |
